Data reported in ChEMBL document CHEMBL1126680, “Structure-activity relationships of 8-styrylxanthines as A2-selective adenosine antagonists” (J Med Chem, 1993).

These molecules were tested against T1, Adenosine receptor A1 (Rattus norvegicus, UniProt P25099) (assay: Affinity against Adenosine A1 receptor in rat brain using [3H]- PIA as radioligand). Conditions: not given.
T1 sequence (P25099 whole entry): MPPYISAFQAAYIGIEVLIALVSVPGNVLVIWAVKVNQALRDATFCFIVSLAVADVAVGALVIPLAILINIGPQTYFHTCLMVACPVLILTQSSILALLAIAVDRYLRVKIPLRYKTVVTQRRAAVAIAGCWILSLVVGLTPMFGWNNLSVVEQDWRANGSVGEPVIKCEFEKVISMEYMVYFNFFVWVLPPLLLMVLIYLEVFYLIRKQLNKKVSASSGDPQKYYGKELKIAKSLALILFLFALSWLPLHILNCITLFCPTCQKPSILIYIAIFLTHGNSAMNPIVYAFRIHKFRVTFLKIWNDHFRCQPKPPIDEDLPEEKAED
Assay type: tissue-based

Point of comparison: `C=CCn1c(=O)c2c(nc(/C=C/c3cc(OC)c(OC)c(OC)c3)n2C)n(CC=C)c1=O`, Ki 1.93 µM. Against it:
- Cn1c(=O)c2c(nc(/C=C/c3cccc(NC(=O)OC(C)(C)C)c3)n2C)n(C)c1=O — 12-fold higher, 23.6 µM
- COc1cc(/C=C/c2nc3c(c(=O)n(C)c(=O)n3C)n2C)cc(OC)c1OC — 4.8-fold higher, 9.2 µM
- COc1cc(/C=C/c2nc3c(=O)n(C)c(=O)n(C)c3[nH]2)cc(OC)c1OC — within 1.5-fold, 2.28 µM
- COc1cccc2cc(-c3nc4c(=O)n(C)c(=O)n(C)c4[nH]3)oc12 — within 1.5-fold, 1.77 µM

Each molecule was assayed against T2, Adenosine receptor A1 (Rattus norvegicus) (UniProt P25099) (assay: Binding affinity against Adenosine A1 receptor in rat brain using [3H]- PIA). Conditions: concentration not given here.
T2 sequence (whole entry): T1 sequence (P25099 whole entry)
Assay type: tissue-based

Point of comparison: `COc1cc(/C=C/c2nc3c(c(=O)n(C)c(=O)n3C)n2C)cc(OC)c1OC/C=C/CNC(=O)OC(C)(C)C`, inhibition 11%. Against it:
- Cn1c(=O)c2c(nc(CCc3cccc(N)c3)n2C)n(C)c1=O — higher, 15%
- CN(C)c1ccc(/C=C/c2nc3c(c(=O)n(C)c(=O)n3C)n2C)cc1 — lower, 5.6%
- COc1cc(/C=C/c2nc3c(c(=O)n(C)c(=O)n3C)n2C)cc(OC)c1 — higher, 12.5%
- COc1ccc(/C=C/c2nc3c(=O)n(C)c(=O)n(C)c3[nH]2)c(OC)c1OC — higher, 26%
- COc1cc(/C=C/c2nc3c(c(=O)n(C)c(=O)n3C)n2CCO)cc(OC)c1OC — higher, 26%
- COc1cc(/C=C/c2nc3c(c(=O)n(C)c(=O)n3C)n2C)cc(OC)c1OC/C=C/CNC(C)=O — higher, 17%

The molecules below were run against Adenosine A2 receptor (Rattus norvegicus) (UniProt P29276+P30543) (assay: Binding affinity against Adenosine A2 receptor in rat brain using [3H]- CGS 21680). Conditions: concentration not given here.
Assay type: tissue-based

With `COc1cc(/C=C/c2nc3c(c(=O)n(C)c(=O)n3C)n2CCO)cc(OC)c1OC` the inhibition was 22%.

What follows are molecules tested against Adenosine A2 receptor (Rattus norvegicus, UniProt P29276+P30543) (assay: Binding affinity against adenosine A2 receptor in rat brain using [3H]- CGS 21680 as radioligand). Conditions: not given.
Assay type: tissue-based

Point of comparison: `CCCn1c(=O)c2nc(/C=C/c3ccc(OC)c(OC)c3OC)[nH]c2n(CCC)c1=O`, Ki 0.064 µM. Against it:
- COc1cc(/C=C/c2nc3c(c(=O)n(C)c(=O)n3C)n2C)cc(OC)c1OC/C=C/CNC(=O)OC(C)(C)C — 5.5-fold higher, 0.353 µM
- COc1cc(/C=C/c2nc3c(c(=O)n(C)c(=O)n3C)n2C)cc(OC)c1OC(C)=O — within 1.5-fold, 0.068 µM
- C#CCn1c(/C=C/c2cc(OC)c(OC)c(OC)c2)nc2c1c(=O)n(C)c(=O)n2C — 8.2-fold higher, 0.525 µM
- Cn1c(=O)c2c(nc(/C=C/c3cccc(NC(=O)OC(C)(C)C)c3)n2C)n(C)c1=O — 12-fold higher, 0.784 µM
- CCCn1c(=O)c2nc(/C=C/c3ccccc3)[nH]c2n(CCC)c1=O — within 1.5-fold, 0.044 µM
- COc1cccc(/C=C/c2nc3c(c(=O)n(C)c(=O)n3C)n2C)c1 — within 1.5-fold, 0.0848 µM
- Cn1c(=O)c2nc(/C=C/c3cccc(N)c3)[nH]c2n(C)c1=O — 3.2-fold higher, 0.202 µM
- COc1cccc(/C=C/c2nc3c(=O)n(C)c(=O)n(C)c3[nH]2)c1OC — 9.4-fold higher, 0.6 µM
- Cn1c(=O)c2nc(/C=C/c3ccccc3)[nH]c2n(C)c1=O — 4.5-fold higher, 0.291 µM
- CCCn1c(=O)c2c(nc(/C=C/c3cccc([N+](=O)[O-])c3)n2C)n(CCC)c1=O — within 1.5-fold, 0.0562 µM
- CC(=O)Nc1cccc(/C=C/c2nc3c(c(=O)n(C)c(=O)n3C)n2C)c1 — 1.6-fold lower, 0.039 µM
- Cn1c(=O)c2c(nc(/C=C/c3cccc(NC(=O)CCC(=O)O)c3)n2C)n(C)c1=O — 2.2-fold higher, 0.143 µM
- Cn1c(=O)c2c(nc(CCc3cccc(N)c3)n2C)n(C)c1=O — 280-fold higher, 18 µM
- CCCn1c(=O)c2nc(/C=C/c3cc(OC)cc(OC)c3)[nH]c2n(CCC)c1=O — 3.3-fold higher, 0.21 µM
- COc1ccc(/C=C/c2nc3c(=O)n(C)c(=O)n(C)c3[nH]2)cc1OC — 17-fold higher, 1.1 µM
- COc1cc(/C=C/c2nc3c(c(=O)n(C)c(=O)n3C)n2C)cc(OC)c1OCCCCNC(=O)OC(C)(C)C — 4.1-fold higher, 0.265 µM
- CCCn1c(=O)c2nc(/C=C/c3cccc(F)c3)[nH]c2n(CCC)c1=O — 2.4-fold higher, 0.153 µM
- CCCn1c(=O)c2c(nc(/C=C/c3ccc(OC)c(OC)c3OC)n2C)n(CCC)c1=O — within 1.5-fold, 0.0685 µM
- Cn1c(=O)c2nc(/C(F)=C/c3ccccc3)[nH]c2n(C)c1=O — 33-fold higher, 2.11 µM
- Cn1c(=O)c2c(nc(/C=C/c3cccc(N(C(=O)OC(C)(C)C)C(=O)OC(C)(C)C)c3)n2C)n(C)c1=O — 12-fold higher, 0.74 µM
- COc1ccccc1/C=C/c1nc2c(=O)n(C)c(=O)n(C)c2[nH]1 — 10-fold higher, 0.645 µM
- COc1cc(/C=C/c2nc3c(c(=O)n(C)c(=O)n3C)n2C)cc(OC)c1OC/C=C/CN — 3.6-fold higher, 0.228 µM
- COc1ccccc1/C=C/c1nc2c(c(=O)n(C)c(=O)n2C)n1C — 4.2-fold higher, 0.267 µM
- CN(C)c1ccc(/C=C/c2nc3c(c(=O)n(C)c(=O)n3C)n2C)cc1 — 140-fold higher, 9.27 µM
- COc1ccc(/C=C/c2nc3c(c(=O)n(C)c(=O)n3C)n2C)c(OC)c1OC — 3.2-fold higher, 0.206 µM
- COc1cc(/C=C/c2nc3c(c(=O)n(C)c(=O)n3C)n2C)cc(OC)c1 — within 1.5-fold, 0.0753 µM
- CCn1c(/C=C/c2cc(OC)c(OC)c(OC)c2)nc2c1c(=O)n(C)c(=O)n2C — 14-fold higher, 0.882 µM
- Cn1c(=O)c2nc(/C=C/c3cccc(O)c3)[nH]c2n(C)c1=O — 4.7-fold higher, 0.303 µM
- Cn1c(=O)c2nc(/C=C/c3cc(F)cc(F)c3)[nH]c2n(C)c1=O — 5.7-fold higher, 0.366 µM
- CCCn1c(=O)c2c(nc(/C=C/c3cc(OC)cc(OC)c3)n2C)n(CCC)c1=O — 2.7-fold lower, 0.024 µM
- COc1cc(/C=C/c2nc3c(c(=O)n(C)c(=O)n3C)n2C)cc(OC)c1OCCCCN — 2.7-fold higher, 0.173 µM
- CCCn1c(=O)c2nc(/C=C/c3cccc(Cl)c3)[nH]c2n(CCC)c1=O — 3.4-fold higher, 0.216 µM
- Cn1c(=O)c2c(nc(/C=C/c3cc(F)cc(F)c3)n2C)n(C)c1=O — within 1.5-fold, 0.065 µM
- COc1cc(/C=C/c2nc3c(c(=O)n(C)c(=O)n3C)n2C)cc(OC)c1O — 7-fold higher, 0.45 µM
- COc1cc(/C=C/c2nc3c(=O)n(C)c(=O)n(C)c3[nH]2)cc(OC)c1 — 1.9-fold higher, 0.12 µM
- Cn1c(=O)c2c(nc(/C=C/c3cccc(F)c3)n2C)n(C)c1=O — within 1.5-fold, 0.083 µM
- COc1ccc(/C=C/c2nc3c(=O)n(C)c(=O)n(C)c3[nH]2)c(OC)c1OC — 25-fold higher, 1.61 µM
- CCCn1c(=O)c2c(nc(/C=C/c3cccc(F)c3)n2C)n(CCC)c1=O — 1.9-fold lower, 0.033 µM
- Cn1c(=O)c2c(nc(/C=C/c3cccc(C(F)(F)F)c3)n2C)n(C)c1=O — 2.1-fold higher, 0.134 µM
- COc1ccc(/C=C/c2nc3c(=O)n(C)c(=O)n(C)c3[nH]2)cc1 — 7.4-fold higher, 0.472 µM
- COc1cc(/C=C/c2nc3c(c(=O)n(C)c(=O)n3C)n2C)cc(OC)c1OCc1ccccc1 — 2.2-fold higher, 0.139 µM
- CCCn1c(=O)c2c(nc(/C=C/c3cc(OC)c(OC)cc3OC)n2C)n(CCC)c1=O — 5.1-fold higher, 0.327 µM
- Cn1c(=O)c2c(nc(/C=C/c3cccc(N)c3)n2C)n(C)c1=O — within 1.5-fold, 0.057 µM
- COc1ccc(/C=C/c2nc3c(c(=O)n(C)c(=O)n3C)n2C)cc1 — 5.1-fold higher, 0.327 µM
- CCn1c(=O)c2nc(/C=C/c3cc(OC)c(OC)c(OC)c3)[nH]c2n(CC)c1=O — 4.2-fold higher, 0.269 µM
- COc1cccc(/C=C/c2nc3c(=O)n(C)c(=O)n(C)c3[nH]2)c1 — 5.9-fold higher, 0.378 µM
- CCCn1c(=O)c2nc(/C=C/c3cc(F)cc(F)c3)[nH]c2n(CCC)c1=O — 5.4-fold higher, 0.346 µM
- CN(C)c1ccc(/C=C/c2nc3c(=O)n(C)c(=O)n(C)c3[nH]2)cc1 — 200-fold higher, 12.8 µM
- COc1cc(/C=C/c2nc3c(c(=O)n(C)c(=O)n3C)n2C)cc(OC)c1OC/C=C/CNC(C)=O — 3.4-fold higher, 0.216 µM
- Cn1c(=O)c2c(nc(/C=C/c3cccc([N+](=O)[O-])c3)n2C)n(C)c1=O — 3-fold higher, 0.195 µM
- Cn1c(=O)c2nc(/C=C/c3cccc([N+](=O)[O-])c3)[nH]c2n(C)c1=O — 6.8-fold higher, 0.438 µM
- CCCn1c(=O)c2nc(/C=C/c3cc(OC)c(OC)cc3OC)[nH]c2n(CCC)c1=O — 5-fold higher, 0.323 µM
- CCCn1c(=O)c2c(nc(/C=C/c3cc(F)cc(F)c3)n2C)n(CCC)c1=O — within 1.5-fold, 0.053 µM
- COc1cc(/C=C/c2nc3c(c(=O)n(C)c(=O)n3C)n2CCc2ccccc2)cc(OC)c1OC — 4.6-fold lower, 0.014 µM
- CCCn1c(=O)c2c(nc(/C=C/c3cccc(N)c3)n2C)n(CCC)c1=O — 3.4-fold lower, 0.0189 µM
- COc1cccc2cc(-c3nc4c(=O)n(C)c(=O)n(C)c4[nH]3)oc12 — 61-fold higher, 3.9 µM
- Cn1c(=O)c2nc(/C=C/c3cccc(F)c3)[nH]c2n(C)c1=O — 8.1-fold higher, 0.516 µM
- COc1cccc2cc(-c3nc4c(c(=O)n(C)c(=O)n4C)n3C)oc12 — 74-fold higher, 4.74 µM
- Cn1c(=O)c2nc(/C=C/c3cccc(C(F)(F)F)c3)[nH]c2n(C)c1=O — 5.4-fold higher, 0.343 µM
- COc1cccc(/C=C/c2nc3c(c(=O)n(C)c(=O)n3C)n2C)c1OC — 11-fold higher, 0.716 µM
- COc1ccc(/C=C/c2nc3c(c(=O)n(C)c(=O)n3C)n2C)cc1OC — 3.1-fold higher, 0.197 µM
